{"source": "patent US5668133A", "about": "“Ophthalmic compositions comprising emedastine and methods for their use” (priority 1995, dated 1997)", "key": {"[1]": {"test_system": "histamine-induced vascular permeability in guinea pig conjunctiva", "assay": "histamine-induced vascular permeability in guinea pig conjunctiva, topical ocular pretreatment", "type": "in vivo, guinea pig (Male Dunkin Hartley)", "protocol": "The topical ocular antihistaminic effect of emedastine difumarate was assessed in a model of histamine induced vascular permeability in guinea pig conjunctiva. The potency of emedastine difumarate in this model was then compared with those of reference antihistamines.\nMale Dunkin Hartley Viral Antibody Free outbred guinea pigs (Charles River Labs, Portage, Mich.), weighing approximately 250-350 grams (6/group) were injected intravenously (i.v.) via the marginal ear vein with 1.0 mL of Evans Blue dye (1.0 mg/mL). Forty-five (45) minutes post dye injection, 20 μL of test compound or saline vehicle was applied topically to one eye of each experimental animal. […] Responses were quantitated as described by Yanni et al. in Int. Arch. Allergy Immunol., 101:102-106 (1993). Response scores from the treated groups were then compared with scores obtained in the saline-treated group using Dunnett's t test (Dunnett C. W., \"A multiple comparison procedure for comparing treatments with a control.\" J. Am. Stat. Assoc. 50:1096-1121(1955)). Regression analysis was used to determine relative potency (Bliss, C. and E. Gjorgy. In Vitamin Methods, Vol. 2, pp. 445-610, Academic Press, Inc., New York, 1951.)."}, "allergic conjunctivitis": {"test_system": "allergic conjunctivitis", "conditions": "without the addition of a vasoconstrictor; cited from earlier work"}, "[2]": {"conditions": "as compared to systemic activity; cited from earlier work"}, "[3]": {"conditions": "1 min pretreatment, relative to emedastine difumarate = 1.0, (95% Confidence Limits)"}, "[4]": {"conditions": "30 min pretreatment, relative to emedastine difumarate = 1.0, (95% Confidence limits)"}, "[5]": {"conditions": "1 min pretreatment, 0.001 wt %, ketotifen/pheniramine experiment (NaCl 276 ± 10)"}, "[6]": {"conditions": "1 min pretreatment, 0.01 wt %, ketotifen/pheniramine experiment (NaCl 276 ± 10)"}, "[7]": {"conditions": "1 min pretreatment, 0.1 wt %, ketotifen/pheniramine experiment (NaCl 276 ± 10)"}}, "data": [{"smiles": "c1ccc(CN(CC2=NCCN2)c2ccccc2)cc1", "note": "[Antazoline, reference compound]", "values": [{"measurement": "Wheal Area × Intensity", "setting": "[1]; 1 min pretreatment, 0.0001 wt %, antazoline experiment (NaCl 285 ± 19)", "result": "244 ± 14"}, {"measurement": "Wheal Area × Intensity", "setting": "[1]; 1 min pretreatment, 0.001 wt %, antazoline experiment (NaCl 285 ± 19)", "result": "178 ± 42"}, {"measurement": "Wheal Area × Intensity", "setting": "[1]; 1 min pretreatment, 0.01 wt %, antazoline experiment (NaCl 285 ± 19)", "result": "115 ± 6"}, {"measurement": "Potency", "setting": "[1]; [3]", "result": 0.060}, {"measurement": "Wheal Area × Intensity (x ± S.D.)", "setting": "[1]; 30 min pretreatment, 0.01 wt %, antazoline experiment (NaCl 287 ± 20)", "result": "205 ± 61"}, {"measurement": "Wheal Area × Intensity (x ± S.D.)", "setting": "[1]; 30 min pretreatment, 0.1 wt %, antazoline experiment (NaCl 287 ± 20)", "result": "145 ± 26"}, {"measurement": "Wheal Area × Intensity (x ± S.D.)", "setting": "[1]; 30 min pretreatment, 1.0 wt %, antazoline experiment (NaCl 287 ± 20)", "result": "91 ± 27"}, {"measurement": "Potency", "setting": "[1]; [4]", "result": "~0.00017"}]}, {"smiles": "CN(C)CCC(c1ccc(Br)cc1)c1ccccn1", "note": "(stereo not shown) [Brompheniramine, reference compound]", "values": [{"measurement": "Wheal Area × Intensity (X ± S.D.)", "setting": "[1]; 30 min pretreatment, 0.0001 wt %, brompheniramine experiment (NaCl 219 ± 20)", "result": "167 ± 26"}, {"measurement": "Wheal Area × Intensity (X ± S.D.)", "setting": "[1]; 30 min pretreatment, 0.001 wt %, brompheniramine experiment (NaCl 219 ± 20)", "result": "92 ± 44"}, {"measurement": "Wheal Area × Intensity (x ± S.D.)", "setting": "[1]; 30 min pretreatment, 0.01 wt %, brompheniramine experiment (NaCl 219 ± 20)", "result": "5 ± 8"}, {"measurement": "Potency", "setting": "[1]; [4]", "result": "0.14 (0.078-0.263)"}]}, {"smiles": "CN(C)CCC(c1ccc(Cl)cc1)c1ccccn1", "note": "(stereo not shown) [Chlorpheniramine, reference compound]", "values": [{"measurement": "Wheal Area × Intensity (X ± S.D.)", "setting": "[1]; 30 min pretreatment, 0.0001 wt %, chlorpheniramine experiment (NaCl 217 ± 35)", "result": "161 ± 57"}, {"measurement": "Wheal Area × Intensity (X ± S.D.)", "setting": "[1]; 30 min pretreatment, 0.001 wt %, chlorpheniramine experiment (NaCl 217 ± 35)", "result": "76 ± 22"}, {"measurement": "Wheal Area × Intensity (x ± S.D.)", "setting": "[1]; 30 min pretreatment, 0.01 wt %, chlorpheniramine experiment (NaCl 217 ± 35)", "result": "9 ± 12"}, {"measurement": "Potency", "setting": "[1]; [4]", "result": "0.13 (0.056-0.295)"}]}, {"smiles": "CN1CCC[C@@H]1CCO[C@](C)(c1ccccc1)c1ccc(Cl)cc1", "note": "[Clemastine, reference compound]", "values": [{"measurement": "Wheal Area × Intensity (X ± S.D.)", "setting": "[1]; 30 min pretreatment, 0.00001 wt %, clemastine experiment (NaCl 350 ± 31)", "result": "283 ± 37"}, {"measurement": "Wheal Area × Intensity (X ± S.D.)", "setting": "[1]; 30 min pretreatment, 0.0001 wt %, clemastine experiment (NaCl 350 ± 31)", "result": "131 ± 36"}, {"measurement": "Wheal Area × Intensity (X ± S.D.)", "setting": "[1]; 30 min pretreatment, 0.001 wt %, clemastine experiment (NaCl 350 ± 31)", "result": "65 ± 28"}, {"measurement": "Wheal Area × Intensity (x ± S.D.)", "setting": "[1]; 30 min pretreatment, 0.01 wt %, clemastine experiment (NaCl 350 ± 31)", "result": "18 ± 8"}]}, {"smiles": "CN1CCC(=C2c3ccccc3CC(=O)c3sccc32)CC1", "note": "[Ketotifen, reference compound]", "values": [{"measurement": "Wheal Area × Intensity", "setting": "[1]; 1 min pretreatment, 0.0001 wt %, ketotifen/pheniramine experiment (NaCl 276 ± 10)", "result": "210 ± 11"}, {"measurement": "Wheal Area × Intensity", "setting": "[1]; [5]", "result": "138 ± 21"}, {"measurement": "Wheal Area × Intensity", "setting": "[1]; [6]", "result": "89 ± 22"}, {"measurement": "Wheal Area × Intensity", "setting": "[1]; [7]", "result": "33 ± 22"}, {"measurement": "Potency", "setting": "[1]; [3]", "result": 0.288}, {"measurement": "Wheal Area × Intensity (x ± S.D.)", "setting": "[1]; 30 min pretreatment, 0.0000007 wt %, ketotifen experiment (NaCl 214 ± 41)", "result": "157 ± 66"}, {"measurement": "Wheal Area × Intensity (x ± S.D.)", "setting": "[1]; 30 min pretreatment, 0.000007 wt %, ketotifen experiment (NaCl 214 ± 41)", "result": "108 ± 52"}, {"measurement": "Wheal Area × Intensity (x ± S.D.)", "setting": "[1]; 30 min pretreatment, 0.00007 wt %, ketotifen experiment (NaCl 214 ± 41)", "result": "61 ± 26"}, {"measurement": "Potency", "setting": "[1]; topical, 0.5 h", "result": "3.72 (0.973-11.892)"}]}, {"smiles": "C[C@@H]1CN([C@H]2CC[C@](C#N)(c3ccc(F)cc3)CC2)CC[C@]1(C(=O)O)c1ccccc1", "note": "[Levocabastine, reference compound]", "values": [{"measurement": "attenuation of histamine-induced vascular permeability response", "setting": "[1]; 0.05%, topically 1 minute before histamine injection", "result": "failed to attenuate significantly"}, {"measurement": "Wheal Area × Intensity", "setting": "[1]; 1 min pretreatment, 0.05 wt %, levocabastine experiment (NaCl 336 ± 78)", "result": "231 ± 58"}, {"measurement": "Wheal Area × Intensity (x ± S.D.)", "setting": "[1]; 30 min pretreatment, 0.0005 wt %, levocabastine/pheniramine experiment (NaCl 252 ± 30)", "result": "189 ± 66"}, {"measurement": "Wheal Area × Intensity (x ± S.D.)", "setting": "[1]; 30 min pretreatment, 0.005 wt %, levocabastine/pheniramine experiment (NaCl 252 ± 30)", "result": "116 ± 67"}, {"measurement": "Wheal Area × Intensity (x ± S.D.)", "setting": "[1]; 30 min pretreatment, 0.05 wt %, levocabastine/pheniramine experiment (NaCl 252 ± 30)", "result": "56 ± 41"}, {"measurement": "Potency", "setting": "[1]; [4]", "result": "0.01 (0.006-0.038)"}, {"measurement": "clinical activity in patients with allergic conjunctivitis", "setting": "allergic conjunctivitis", "result": "exhibits clinical activity"}]}, {"smiles": "CN(C)CCC(c1ccccc1)c1ccccn1", "note": "(stereo not shown) [Pheniramine, reference compound]", "values": [{"measurement": "Wheal Area × Intensity", "setting": "[1]; [5]", "result": "181 ± 16"}, {"measurement": "Wheal Area × Intensity", "setting": "[1]; [6]", "result": "87 ± 40"}, {"measurement": "Wheal Area × Intensity", "setting": "[1]; [7]", "result": "59 ± 23"}, {"measurement": "Potency", "setting": "[1]; [3]", "result": 0.130}, {"measurement": "Wheal Area × Intensity (x ± S.D.)", "setting": "[1]; 30 min pretreatment, 0.003 wt %, levocabastine/pheniramine experiment (NaCl 252 ± 30)", "result": "175 ± 53"}, {"measurement": "Wheal Area × Intensity (x ± S.D.)", "setting": "[1]; 30 min pretreatment, 0.03 wt %, levocabastine/pheniramine experiment (NaCl 252 ± 30)", "result": "122 ± 33"}, {"measurement": "Potency", "setting": "[1]; [4]", "result": "~0.0028"}]}, {"smiles": "COc1ccc(CCN2CCC(Nc3nc4ccccc4n3Cc3ccc(F)cc3)CC2)cc1", "note": "[astemizole]", "values": [{"measurement": "local ocular activity", "setting": "[2]", "result": "greatly reduced local ocular activity"}]}, {"smiles": "CCOC(=O)N1CCC(=C2c3ccc(Cl)cc3CCc3cccnc32)CC1", "note": "[loratadine]", "values": [{"measurement": "local ocular activity", "setting": "[2]", "result": "greatly reduced local ocular activity"}]}, {"smiles": "CC(C)(C)c1ccc(C(O)CCCN2CCC(C(O)(c3ccccc3)c3ccccc3)CC2)cc1", "note": "(stereo not shown) [terfenadine]", "values": [{"measurement": "local ocular activity", "setting": "[2]", "result": "little or no local ocular activity"}]}]}
